Results as given in PubChem BioAssay (NCI).
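Cells were grown in 96-well plates and exposed to each compound for 48 hours at five concentrations; endpoints were interpolated linearly between bracketing concentrations, or set to the highest concentration if not reached. Here, GI50 denotes the concentration required for 50% inhibition of growth. TGI denotes the concentration required for complete inhibition of growth.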 *1 amine or outer side, *2 acyl side, *3 side chain or, on linkers, in order; H or OH if unused. Where a SMILES comes first, the peptide text is derived from it. The star is where a group is joined. γGlu = O=C(O)[CH](CCC(=O)[*:2])N[*:1]; NHOH = ON*

What was measured:
Experiment in all cases: NCI tumour cell line growth inhibition, 48 h
HT29 colon = test system: HT29 colon
SNB-75 CNS = test system: SNB-75 CNS
SK-OV-3 ovarian = test system: SK-OV-3 ovarian
SF-539 CNS = test system: SF-539 CNS
SW-620 colon = test system: SW-620 colon
NCI-H226 lung = test system: NCI-H226 lung
COLO 205 colon = test system: COLO 205 colon
ACHN renal = test system: ACHN renal
HCC-2998 colon = test system: HCC-2998 colon
RPMI-8226 leukemia = test system: RPMI-8226 leukemia

Row | SMILES | TGI (HT29 colon) | TGI (SNB-75 CNS) | TGI (SK-OV-3 ovarian) | TGI (SF-539 CNS) | TGI (SW-620 colon) | TGI (NCI-H226 lung) | TGI (COLO 205 colon) | TGI (ACHN renal) | TGI (HCC-2998 colon) | TGI (RPMI-8226 leukemia) | GI50 (HT29 colon) | GI50 (SNB-75 CNS) | GI50 (SK-OV-3 ovarian) | GI50 (SF-539 CNS) | GI50 (SW-620 colon) | GI50 (NCI-H226 lung) | GI50 (COLO 205 colon) | GI50 (ACHN renal) | GI50 (HCC-2998 colon) | GI50 (RPMI-8226 leukemia)
1 | CC1=NN(c2ccccc2)C(=O)/C1=C1\SC(c2ccccc2)(c2ccccc2)c2ccccc21 | > 100 µM | > 100 µM | > 100 µM | > 100 µM | > 100 µM | > 100 µM | > 100 µM | > 100 µM | > 100 µM | > 100 µM |  |  |  |  |  |  |  |  |  | 
2 | Cc1ccccc1NC(=O)C(=O)C(C1OC(=O)c2ccccc21)[N+](=O)[O-] (stereo unspecified) | > 100 µM | > 100 µM | > 100 µM | > 100 µM | > 100 µM | > 100 µM | > 100 µM | > 100 µM | > 100 µM | > 100 µM |  |  |  |  |  |  |  |  |  | 
3 | COc1cc2ncnc(Nc3cccc(Br)c3)c2cc1OC | 18.8 µM | 29.3 µM | 19 µM | 17 µM | > 50.2 µM | 18.5 µM | 20.8 µM | > 100 µM | 10.2 µM | > 100 µM |  |  |  |  |  |  |  |  |  | 
4 | Fc1ccc(/C=C2\COCC3=C2NC(=S)NC3c2ccc(F)cc2)cc1 (stereo unspecified) |  | 57.6 µM | 79.8 µM | 36.9 µM | 36 µM | 45.1 µM | 35.1 µM | > 100 µM | 32.7 µM | 44.4 µM |  |  |  |  |  |  |  |  |  | 
5 | O=C1O/C(=C(\Br)c2ccc([N+](=O)[O-])cc2)c2ccccc21 | > 88.5 µM | > 100 µM | > 100 µM | > 100 µM | > 100 µM | > 100 µM | > 100 µM | > 100 µM | > 100 µM | > 61.8 µM |  |  |  |  |  |  |  |  |  | 
6 | COc1ccccc1C1C(C#N)=C(N)SC(N)=C1C#N | > 100 µM | > 100 µM | > 100 µM | > 100 µM | > 100 µM | 75.8 µM | > 100 µM | > 100 µM | > 100 µM | 32.9 µM | 37.4 µM | 39.2 µM | > 100 µM | 90.7 µM | > 100 µM | 25.6 µM | > 100 µM | 65.1 µM | > 100 µM | 12.3 µM
7 | COC(=O)/C(=C(/C)c1ccco1)P(=O)(OC)OC | > 100 µM | > 100 µM | > 100 µM | > 100 µM | > 100 µM | > 100 µM | > 100 µM | > 100 µM | > 100 µM | > 100 µM |  |  |  |  |  |  |  |  |  | 
8 | CCCCCCc1cc2cc(C(=O)Nc3nc(C45CC6CC(CC(C6)C4)C5)cs3)c(=O)oc2cc1O | > 100 µM | 32.4 µM | 49 µM | 38.6 µM | > 100 µM | 44.8 µM | 32.6 µM | 20.8 µM | 32.8 µM | 39 µM |  |  |  |  |  |  |  |  |  | 
9 | CCOC(=O)Cn1nnc2ccc(Nc3nc4ccccc4nc3C(=O)OCC)cc21 | > 100 µM | 46.5 µM | > 100 µM | 91.8 µM | > 100 µM | > 100 µM | > 100 µM | > 100 µM | > 100 µM | > 100 µM |  |  |  |  |  |  |  |  |  | 
10 | COc1cc(/C=C2\CC3C4CC=C5C[C@@H](O)CC[C@]5(C)C4CC[C@]3(C)\C2=N\O)cc(OC)c1OC (stereo partly specified) | > 100 µM | > 100 µM | > 100 µM | 34.7 µM | > 100 µM | 60.9 µM | 16.9 µM | 17.6 µM | 45 µM | 40 µM |  |  |  |  |  |  |  |  |  | 
11 | NC(CCC(=O)NC(CCC(=O)NO)C(=O)NCC(=O)O)C(=O)O (stereo unspecified) (γGlu-Glu(NHOH)-Gly-OH; configuration not given here) | > 100 µM | > 100 µM | > 100 µM | > 100 µM | > 100 µM | > 100 µM | > 100 µM | > 100 µM | > 100 µM | > 100 µM |  |  |  |  |  |  |  |  |  | 
12 | COC(=O)C12C(=O)CC3CCC1C32C(=O)OC (stereo unspecified) | > 100 µM | > 100 µM | > 100 µM | > 100 µM | > 100 µM | > 100 µM | > 100 µM | > 100 µM | > 100 µM | > 100 µM |  |  |  |  |  |  |  |  |  | 
13 | CC1OC1C(=O)P(=O)(O)O (stereo unspecified) |  | > 100 µM | > 100 µM | > 100 µM | > 100 µM | > 100 µM | > 100 µM | > 100 µM | > 100 µM | > 100 µM |  |  |  |  |  |  |  |  |  | 
14 | CCOC(=O)N1CCC2(CC1)C[C@](Sc1ccccc1)(C(C)=O)[C@H](C)O2 | > 100 µM | > 100 µM | > 100 µM | > 100 µM | > 100 µM | > 100 µM | > 100 µM | > 100 µM | > 100 µM | > 100 µM |  |  |  |  |  |  |  |  |  | 
15 | COc1cc(OC)c(-n2[nH]c(=O)n(C)c2=O)c(OC)c1 | > 100 µM | > 100 µM | > 100 µM | > 100 µM | > 100 µM | > 100 µM | > 100 µM |  | > 100 µM | > 100 µM |  |  |  |  |  |  |  |  |  | 
16 | CN(C)CC1CCC/C(=C\c2ccc(Cl)c(Cl)c2)C1=O (stereo unspecified) | > 33.9 µM | 21.2 µM | 20.3 µM | 12.5 µM | > 29.3 µM | 24.5 µM | 7.27 µM | 15.1 µM | 25.5 µM | 1.03 µM |  |  |  |  |  |  |  |  |  | 
17 | Cc1ccc(N=NC(=Nc2ccc(F)cc2)c2ccc(N(CCC#N)CCC#N)cc2)cc1 | > 100 µM | > 100 µM | > 100 µM | > 100 µM | > 100 µM | > 100 µM | > 100 µM | > 100 µM | > 100 µM | > 100 µM |  |  |  |  |  |  |  |  |  | 
18 | COC(=O)[C@H](Cc1ccccc1)NC(=O)N(CCN(CCC#N)C(=O)N[C@H](C(=O)OC)C(C)C)c1ccccc1 |  | > 100 µM | > 100 µM | > 100 µM | > 100 µM | > 100 µM | > 100 µM | > 100 µM | > 100 µM | > 100 µM |  |  |  |  |  |  |  |  |  | 
19 | C/C(=N/NC(=S)N1CCCCCC1)c1cccc(/C(C)=N\NC(=S)N2CCCCCC2)n1 | 4.65 µM | 4.68 µM | 4.1 µM | 3.15 µM | 3.55 µM | 3.31 µM | 3.23 µM | 2.87 µM | 6.38 µM | 5.33 µM |  |  |  |  |  |  |  |  |  | 
